Results from patent US9422318B2, “Epoxyeicosatrienoic acid analogs and methods of making and using the same” (THE MEDICAL COLLEGE OF WISCONSIN, INC., priority 2011, dated 2016).
pIC50: −log10 of the molar value. Entries after “also recorded” stand apart in the source; their conditions may differ. Where two headings read alike, the source gives them in different places.

Assays:
[1] = tested on: cisplatin-induced nephrotoxicity in Wistar-Kyoto (WKY) rats; experiment: Cisplatin-induced nephrotoxicity in rats; assay type: in vivo, rat
Source text: Experiments were approved and carried out according to the guidelines of the Institutional Animal Care and Use Committee, Medical College of Wisconsin, Milwaukee, USA. Male Wistar-Kyoto (WKY) rats weighing 180-200 g (Charles River, Mass., USA). All animals were kept in a temperature-controlled environment with a 12-h light/dark cycle and were allowed free access to food and water at all times. An acclimatization period of 6 days was allowed for the rats before experimentation. The rats were assigned into four groups. […] Rats received drinking water ad libitum for seven days and on day 7 DMSO (Sigma Aldrich, St. Louis, Mo., USA) was administered (300-500 μl i.p.). […] These rats are pretreated with the EET analog […].) for seven days in drinking water and then on day 7 administered CP as a single injection (7 mg/kg i.p.) followed by another five days treatment with EET-A. […] One day before the rats were sacrificed, urine of each rat was collected over a 24-h period, and the volume was measured. Five days after CP or DMSO administration, rats were anesthetized for blood sample collection followed by euthanasia and tissue collection. Urine and plasma samples were kept frozen at -80° C. until analyzed. The kidneys were removed, washed with physiological saline and stored at -80° C. until used for RT-PCR analysis, thiobarbituric acid reactive substance (TBARS) measurement and caspase 3 activity assay. […] The levels of blood urea nitrogen (BUN) (BioAssay Systems, Hayward, Calif., USA) and serum creatinine (Cayman Chemical Company, Ann Arbor, Mich., USA) were measured spectrophotometrically using commercial kits. Urinary content of creatinine and protein were measured using commercial kits (Cayman Chemical Company, Ann Arbor, Mich., USA), and the activity of urinary N-acetyl-b-glucosaminidase (NAG) in the urine was measured by a kit from Diazyme (Diazyme Laboratories, Poway, Calif., USA). While urine content of kidney injury molecule-1 (KIM-1) was measured using ELISA (R&D Systems, Inc. Minneapolis, Minn., USA). Malondialdehyde (MDA) is a thiobarbituric acid reactive substance (TBARS) that is formed as an end-product of lipid peroxidation and serves as an important index of oxidative stress. […] Using a commercially available kit (Cayman Chemical Company, Ann Arbor, Mich., USA), MDA was measured spectrophotometrically after reaction with thiobarbituric acid. […] Louis, Mo., USA). Kidney homogenate was prepared with a lysis Buffer (50 mM HEPES, pH 7.4, with 5 mM CHAPS and 5 mM DTT). […] The caspase 3 activity is expressed as nmol of AMC/min/μL. Real-Time analysis was carried out to assess the expression of oxidative (gp91phox, NOX1, SOD1, SOD2, SOD3), inflammatory (TNF-α, IL-6, apoptotic (Bax, Bak, Bcl-2) and endoplasmic reticulum stress (GRP78, caspase 12) related genes in the kidney. Total RNA was isolated from kidney homogenate using TRIzol LS reagents (Invitrogen Life Technologies, Carlsbad, Calif., USA) according to the manufacturer's instructions. The isolated RNA was treated with RNase-free DNase (Invitrogen, Carlsbad, Calif., USA) to remove traces of genomic DNA contamination. The mRNA samples were quantified by spectrophotometry at 260 nm and 1 μg of total RNA was reverse-transcribed to cDNA using iScriptTM Select cDNA Synthesis Kit (Bio-Rad, Hercules, Calif., USA). The target gene expression was quantified by iScript One-Step RT-PCR Kit with SYBR green using MyiQTM Single Color Real-Time PCR Detection System (Bio-Rad Laboratories, Hercules, Calif., USA). Each amplified sample in all wells was analyzed for homogeneity using dissociation curve analysis using iQ5 Optical System Software, Version 2.1 (Bio-Rad Laboratories, Hercules, Calif., USA). […] In analyzing the relative expression of the target genes, the Ct values were normalized to a housekeeping gene (pgk1). Statistical analyses were carried out for at least 5-7 experimental samples in each experimental group. Primers used in this study were designed based on several earlier reports. […]

NCCIT cells = experiment: Cell viability by alamar blue assay, cisplatin with concurrent EET-A; assay type: cell-based, human; settings: concurrent application of EET-A and cisplatin; NCCIT cancer cell line
Method: (§1) In this study, HEK293, U87MG, Hela cell-lines were obtained from the ATCC (Manassas, Va., USA) (HEK293, U87MG, Hela), and NCCIT was collected from Department of Pediatrics, UT Southwestern Medical Center at Dallas, Tex., USA. All cell lines were maintained in DMEM or RPIM with 10% fetal bovine serum and penicillin/streptomycin purchased from Life Technologies (Grand Island, N.Y., USA). Cisplatin was purchased from either Sigma (St. Louis, Mo., USA) or CalBiochem/EMD Biosciences (Billerica, Mass., USA). Cells were seeded in 96-well plates at 500 to 4,000 cells per well depends on cell type. […] Cell viability was measured by alamar blue assay using resazurin (Sigma Aldrich) according to the manufacturer's guidelines. Viability results were measured by fluorescence/absorbance in a 96-well plate reader from BMG Labtech (Cary, N.C., USA) and the IC50 was calculated by GraphPad Prism5 software (GraphPad Software Inc, La Jolla, Calif., USA).

[2] = tested on: Hela, NCCIT and U87 cancer cell lines; experiment: Cell viability by alamar blue assay in cancer cell lines; assay type: cell-based, human; settings: 72 h
Method: as §1

bovine coronary artery = experiment: Vasorelaxant activity in bovine coronary artery rings; settings: 10 μM; rings precontracted with U-46619; 100% relaxation = basal pre-U-46619 tension
Method: Vasorelaxant activity was measured in bovine coronary artery. Bovine hearts were obtained and the left anterior descending coronary artery was dissected and cleaned of connective tissue. Vessels of 1 mm diameter were cut into rings of 3 mm width as previously described (3, 27, 39). […] The vessels were suspended from a pair of stainless steel hooks in a 6-ml water jacketed organ chamber. […] One hook was anchored to a steel rod and the other hook to a force transducer (model FT-03C; Grass Instruments, West Warwick, R.I.). Tension of the vessel was measured by an ETH-400 bridge amplifier, and the data were acquired with a MacLab 8e analog-to-digital converter and MacLab software version 3.5.6 (AD Instruments, Milford, Mass.) and stored on a Macintosh computer for subsequent data analysis.
Basal tension was set at the length-tension maximum of 3.5 g and equilibrated for 1.5 h. KCl (40 mM) was added to the chamber until reproducible maximal contractions were maintained. […] Cumulative additions of compounds were added to the chamber. Between concentration-response curves, the chambers were rinsed with fresh Krebs buffer, 40 mM KCl was administered to determine the maximum contraction, and the vessels were rinsed. Consecutive concentration-response curves were performed with 14,15-EET followed by a concentration-response curve to a compound. The experiment was always repeated with the order of the agonists reversed. […] The relaxation was plotted versus compound concentration and the EC50 determined utilizing statistical software.

[3] = tested on: Spontaneously Hypertensive Rats (SHR); experiment: Telemetry blood pressure and heart rate in spontaneously hypertensive rats; assay type: in vivo, rat; settings: effect maintained until end of two-week treatment
Source text: To accurately detect changes in blood pressure and heart rate, telemetry transmitters (Data Sciences Inc., St. Paul, Minn.) were implanted in rats one week prior to the experimental period according to manufacturer's specifications while under pentobarbital anesthesia. In brief, an incision was made to expose the femoral artery that was occluded to allow insertion of the transmitter catheter. The catheter was secured in place with tissue glue and the transmitter body was sutured in place and the incision line was closed. Rats were allowed to recover from surgery and were returned to individual housing. A baseline arterial pressure was recorded for prior to the experimental period. Mean arterial pressure was continuously recorded throughout the experimental period.
Telemetry transmitters were implanted into male SHR as described. After the surgical recovery period, baseline mean arterial pressure was recorded. In this series of experiments, EET analogs were administered by osmotic pump (2 mg/d, i.p.) and blood pressure was continuously monitored.

Human recombinant sEH = Human recombinant sEH (Homo sapiens (Human), UniProt P34913); experiment: Soluble epoxide hydrolase inhibition (PHOME fluorescent substrate); assay type: biochemical
Method: Compounds were tested for their ability to inhibit recombinant soluble epoxide hydrolase (sEH) protein. The assay utilizes (3-Phhenyl-oxiranyl)-acetic acid cyano-(6-methoxy-naphthalen-2-yl)-methyl ester (PHOME), a sensitive substrate for sEH that can be used to monitor the activity of both human and murine enzymes. […] Human recombinant sEH was incubated with substrate and compounds ranging in concentration from 0.1 to 1000 nM.

Sequence of Human recombinant sEH (P34913 whole entry): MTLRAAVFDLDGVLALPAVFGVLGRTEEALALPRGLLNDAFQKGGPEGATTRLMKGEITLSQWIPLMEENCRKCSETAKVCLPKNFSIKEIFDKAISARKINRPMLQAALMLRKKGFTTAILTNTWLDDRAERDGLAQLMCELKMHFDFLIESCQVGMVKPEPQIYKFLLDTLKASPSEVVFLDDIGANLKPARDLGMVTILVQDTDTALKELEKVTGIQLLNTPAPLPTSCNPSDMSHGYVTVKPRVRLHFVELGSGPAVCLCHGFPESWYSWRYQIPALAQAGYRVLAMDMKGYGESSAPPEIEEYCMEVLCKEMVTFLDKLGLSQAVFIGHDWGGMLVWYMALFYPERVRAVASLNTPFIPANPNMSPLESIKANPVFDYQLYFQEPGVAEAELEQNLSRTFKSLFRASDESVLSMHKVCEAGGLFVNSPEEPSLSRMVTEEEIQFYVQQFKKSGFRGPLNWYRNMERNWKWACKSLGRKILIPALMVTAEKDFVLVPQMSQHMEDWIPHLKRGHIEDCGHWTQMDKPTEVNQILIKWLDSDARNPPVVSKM

Compound	BUN ([1]; 10 mg/kg/d p.o., cisplatin 7 mg/kg i.p., day 5 after cisplatin, vehicle 241±51) [mg/dL]	plasma creatinine (PCr) ([1]; 10 mg/kg/d p.o., day 5 after cisplatin, vehicle 3.1±0.2) [mg/dL]	kidney TBARS formation ([1]; 10 mg/kg/d p.o., vehicle 16±2) [µmol/g]	reductions in renal mRNA expressions of inflammatory markers (TNF-α, IL-6, interleukin-1β) ([1]; cisplatin-administered rats)	proteinuria ([1]; cisplatin-administered rats, vehicle 53±5) [mg/day]	reductions in the elevated levels of serum creatinine and BUN ([1]; five days after cisplatin, vs. vehicle)	NAG ([1]; urinary, 10 mg/kg/d p.o., vehicle 3.0±0.6) [U/d]	KIM-1 ([1]; urinary, 10 mg/kg/d p.o., vehicle 296±94) [ng/day]	reduction in urinary excretion of NAG and KIM-1 ([1]; vs. cisplatin rats treated with vehicle)	reduction of cisplatin-induced proteinuria ([1]; vs. vehicle) [%]	reduction in elevated renal expressions of GRP78 and caspase 12 mRNAs ([1]; vs. vehicle treatment)	decrease in kidney expression of NOX1 and gp91phox mRNAs ([1]; vs. vehicle-treated cisplatin rats)	influence on cisplatin's chemotherapeutic effect (NCCIT cells)	effect on cell number / growth [2]	Vascular Relax. % (10 μM) (bovine coronary artery) [%]	start of blood pressure lowering [3]	pIC50 (Human recombinant sEH; read-out: SEHi activity IC50)	pIC50 (Human recombinant sEH; read-out: sEHi IC50)
Disodium (S)-2-(13-(3-pentylureido)tridec-8(Z)-enamido)succinate [EET-A]	108 ± 30	2.0 ± 0.2	7 ± 1	40-60%	33 ± 8	30-50%	0.5±0.1	85 ± 29	30-50%	≥ 40	2-4 fold	2-3 folds	did not influence	no observable effects; also recorded: no effect				
CCCCCCC(=O)N(CCCCCOc1cccc2sc(NC(C)=O)nc12)C(C)C [Compound 30, N-(5-(2-Acetamidobenzo[d]thiazol-4-yloxy)pentyl)-N-isopropylheptanamide]															96	within four days	< 6.30	< 6.30
